What was measured:
vasopressin V1a receptor = vasopressin V1a receptor (Homo sapiens, UniProt P37288); assay: In-vitro vasopressin receptor binding assay, V1a; details: read-out: Receptor Binding (% Inh. @ concentration in μM) V1a
cloned human V2 receptor = molecular target: T1, cloned human V2 receptor (Homo sapiens, UniProt P30518); assay: In-vitro vasopressin receptor binding assay, V2; details: footnote 1: IC50 values (μM); 3H-arginine-8-vasopressin
T1 construct: expressed in transfected cells
Method: Assay buffer is 50 mM Tris-Cl, 5 mM MgC12, 0.1% BSA (pH 7.5) containing 5 ug/ml of aprotinin, leupeptin, pepstatin, 50 ug/ml bacitracin, and 1 mM Pefabloc. H3 vasopressin is ^3H-arginine-8-vasopressin (68.5 Ci/mmol, final concentration in assay is 0.65-0.75nM). Into wells of 96-well round bottom polypropylene plates are added buffer, test compound, membrane (containing cloned human V2 receptor), and H3 vasopressin. The reaction plates are allowed to sit at room temperature for one hour. The samples are filtered through Unifilter GF/C plates (presoaked in 0.3 polyethyleneimine). The plates are washed 5 times with cold physiological saline containing 0.05% Tween 20. After drying, the bottom of the filter plates are sealed and 0.025 ml of Microscint-20 is added to each filter. The top of the plate is sealed, and the plate is counted. Non-specific binding is determined by the addition of 1.25 uM arginine-8-vasopressin in those wells. %Inh. is [formula]

T1 sequence (P30518 whole entry): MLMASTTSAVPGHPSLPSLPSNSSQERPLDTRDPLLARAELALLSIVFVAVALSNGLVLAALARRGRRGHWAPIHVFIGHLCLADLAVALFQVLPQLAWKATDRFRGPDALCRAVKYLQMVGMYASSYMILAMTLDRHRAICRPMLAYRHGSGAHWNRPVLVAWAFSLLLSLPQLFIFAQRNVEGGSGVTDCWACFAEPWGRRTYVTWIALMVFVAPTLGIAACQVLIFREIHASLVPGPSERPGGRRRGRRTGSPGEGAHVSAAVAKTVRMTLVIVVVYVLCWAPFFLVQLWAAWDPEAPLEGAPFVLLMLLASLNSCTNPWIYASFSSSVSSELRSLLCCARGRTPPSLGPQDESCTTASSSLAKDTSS
Chain of vasopressin V1a receptor (P37288 whole entry): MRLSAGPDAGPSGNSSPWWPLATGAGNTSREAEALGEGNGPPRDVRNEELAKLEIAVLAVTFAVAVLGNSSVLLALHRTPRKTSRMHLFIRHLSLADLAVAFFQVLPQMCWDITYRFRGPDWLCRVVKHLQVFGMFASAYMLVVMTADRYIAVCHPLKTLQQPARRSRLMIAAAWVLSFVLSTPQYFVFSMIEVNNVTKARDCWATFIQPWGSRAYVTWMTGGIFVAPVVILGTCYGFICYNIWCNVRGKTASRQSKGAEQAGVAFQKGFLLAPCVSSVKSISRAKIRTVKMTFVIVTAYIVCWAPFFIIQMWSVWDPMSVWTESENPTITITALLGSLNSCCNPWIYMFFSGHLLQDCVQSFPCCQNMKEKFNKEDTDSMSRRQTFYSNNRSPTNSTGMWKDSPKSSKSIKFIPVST

Row | Structure (SMILES) | inhibition at 0.1 µM (vasopressin V1a receptor; 0.1 μM test compound) [%] | IC50 (cloned human V2 receptor) [µM] | melting point [°C] | inhibition at 1 µM (vasopressin V1a receptor; 1 μM test compound) [%]
1 | O=C(O)CC1CCN(C(=O)c2ccc(NC(=O)c3ccccc3-c3ccccc3)cc2)c2ccccc2S1 (centres unmarked) [Compound 29, 2-Carboxymethyl-5-(4-(2-phenylbenzolylamino)benzoyl)-1,5-benzothiazepine] | 16 | 0.004 | 204 to 208 | 
2 | O=C(O)CC1CCN(C(=O)c2ccc(NC(=O)c3ccccc3-c3ccccc3)cc2)c2ccccc2[S+]1[O-] (centres unmarked) [Compound 24, 2-Carboxymethyl-1-oxo-5-(4-(2-phenylbenzoylamino)benzoyl)-1,5-benzothiazepine] |  | 0.108 |  | 0
